From paper PMC9501633, “Synthesis, Characterisation and Mechanism of Action of Anticancer 3-Fluoroazetidin-2-ones” (Pharmaceuticals, 2022)
Read-outs that look alike come from different tables or passages of the source.

Assays:
NCI 60 cell line panel = experiment: NCI 60 cell line screen, whole panel; type: cell-based
Method: The antiproliferative effects of selected compounds 33, 37 and 43 were initially evaluated in the NCI 60 cell line screen at 10 μM concentration (see Supplementary Materials Table S3). […] . […] .
Compound 33 was next selected for evaluation in the NCI 60 cell line five-dose screen. The GI50 (50% growth inhibition), TGI (total growth inhibition) and LC50 (50% lethal concentration) were determined in the NCI panel of 60 cell lines, using the sulphorhodamine B (SRB) protein assay (Table 5). The GI50 value provides the growth inhibition of the selected compound, while the cytotoxic effect is evaluated in the LC50 value. […] . […] . Glioblastoma is an aggressive and fast-growing brain tumour with a median survival time of 9–16 months from diagnosis, and these tumours quickly evolve resistance to temozolomide chemotherapy, which is the only FDA-approved treatment. […] . Further mechanistic and cellular studies were carried out and are described below.
(§1) aData obtained from NCI in vitro human tumour cell screen 1 dose assay (10 µM). 33 (NCI

NCI-H23 = experiment: NCI 60 cell line screen, NSCLung; type: cell-based, human
HOP-92 = experiment: NCI 60 cell line screen, NSCLung; type: cell-based, human
SW-620 = experiment: NCI 60 cell line screen, Colon; type: cell-based, human
HT29 = experiment: NCI 60 cell line screen, Colon; type: cell-based, human
A549/A TCC = experiment: NCI 60 cell line screen, NSCLung; type: cell-based, human
leukaemia panel = experiment: NCI 60 cell line one-dose screen, panel mean; type: cell-based; conditions: Homo sapiens, one dose 10 μM, read-out: mean growth inhibition
Method: The antiproliferative effects of selected compounds 33, 37 and 43 were initially evaluated in the NCI 60 cell line screen at 10 μM concentration (see Supplementary Materials Table S3).
as §1

RPMI-8226 = experiment: NCI 60 cell line screen, Leukaemia; type: cell-based, human
NCI-H460 = experiment: NCI 60 cell line screen, NSCLung; type: cell-based, human
HS 578T = experiment: NCI 60 cell line screen, Breast; type: cell-based, human
SK-MEL-5 = experiment: NCI 60 cell line screen, Melanoma; type: cell-based, human
MOLT-4 = experiment: NCI 60 cell line screen, Leukaemia; type: cell-based, human
HCT-15 = experiment: NCI 60 cell line screen, Colon; type: cell-based, human
HOP-62 = experiment: NCI 60 cell line screen, NSCLung; type: cell-based, human
MDA-MB-468 = experiment: NCI 60 cell line screen, Breast; type: cell-based, human
OVCAR-8 = experiment: NCI 60 cell line screen, Ovarian; type: cell-based, human

COc1ccc(C2C(F)C(=O)N2c2cc(OC)c(OC)c(OC)c2)cc1F (centres unmarked) [Compound 33, 3-Fluoro-4-(3-fluoro-4-methoxyphenyl)-1-(3,4,5-trimethoxyphenyl)azetidin-2-one]
GI50 (NCI 60 cell line panel; Homo sapiens, 60 cell, 48 h, 5-dose assay, 48 h, mean-graph midpoint, read-out: MG-MID GI50): 224 nM
inhibition at 10 µM (NCI 60 cell line panel; Homo sapiens, 60 cell, one dose 10 μM, mean over the 60 cell lines, read-out: mean growth inhibition): 76.3%
CC50 (NCI 60 cell line panel; Homo sapiens, 60 cell, 5-dose assay, 48 h, mean-graph midpoint, read-out: MG-MID LC50): 95.5 µM
CC50 (NCI 60 cell line panel; Homo sapiens, all cell lines except COLO 205 and SK-MEL-5, 5-dose, 48 h, read-out: LC50 (the source's name)): > 100 µM
mean Growth % (NCI 60 cell line panel; one dose 10 µM, mean over the cell lines): 23.66%
TGI (NCI-H23; 5-dose, 48 h): >100 µM
GI50 (NCI-H23; Homo sapiens, 5-dose, 48 h): 273 nM
inhibition at 10 µM (NCI-H23; Homo sapiens, one dose 10 µM): 78.7%
Growth % (NCI-H23; one dose 10 µM): 21.3%
TGI (HOP-92; 5-dose, 48 h): 63.9 µM
GI50 (HOP-92; Homo sapiens, 5-dose, 48 h): 266 nM
inhibition at 10 µM (HOP-92; Homo sapiens, one dose 10 µM): 67.7%
Growth % (HOP-92; one dose 10 µM): 32.28%
TGI (SW-620; 5-dose, 48 h): >100 µM
GI50 (SW-620; Homo sapiens, 5-dose, 48 h): 56.2 nM
inhibition at 10 µM (SW-620; Homo sapiens, one dose 10 µM): 71.3%
Growth % (SW-620; one dose 10 µM): 28.73%
TGI (HT29; 5-dose, 48 h): >100 µM
GI50 (HT29; Homo sapiens, HT-29, 5-dose, 48 h): 134 nM
inhibition at 10 µM (HT29; Homo sapiens, HT-29, one dose 10 µM): 96.3%
Growth % (HT29; one dose 10 µM): 3.73%
TGI (A549/A TCC; 5-dose, 48 h): >100 µM
GI50 (A549/A TCC; Homo sapiens, 5-dose, 48 h): 394 nM
inhibition at 10 µM (A549/A TCC; Homo sapiens, one dose 10 µM): 84.7%
Growth % (A549/A TCC; one dose 10 µM): 15.33%
inhibition at 10 µM (leukaemia panel): 90.6%
TGI (RPMI-8226; 5-dose, 48 h): 37.3 µM
GI50 (RPMI-8226; Homo sapiens, 5-dose, 48 h): 55 nM
inhibition at 10 µM (RPMI-8226; Homo sapiens, one dose 10 µM): 84.7%
Growth % (RPMI-8226; one dose 10 µM): 15.32%
TGI (NCI-H460; 5-dose, 48 h): 91.1 µM
GI50 (NCI-H460; Homo sapiens, 5-dose, 48 h): 356 nM
inhibition at 10 µM (NCI-H460; Homo sapiens, one dose 10 µM): 92.9%
Growth % (NCI-H460; one dose 10 µM): 7.06%
TGI (HS 578T; 5-dose, 48 h): >100 µM
GI50 (HS 578T; Homo sapiens, 5-dose, 48 h): 295 nM
inhibition at 10 µM (HS 578T; Homo sapiens, one dose 10 µM): 74.5%
Growth % (HS 578T; one dose 10 µM): 25.54%
TGI (SK-MEL-5; 5-dose, 48 h): 0.35 µM
GI50 (SK-MEL-5; Homo sapiens, 5-dose, 48 h): 45.6 nM
CC50 (SK-MEL-5; Homo sapiens, 5-dose, 48 h, read-out: LC50 (the source's name)): 91.3 µM
inhibition at 10 µM (SK-MEL-5; Homo sapiens, one dose 10 µM): 131%
Growth % (SK-MEL-5; one dose 10 µM): -31.46%
TGI (MOLT-4; 5-dose, 48 h): 93.4 µM
GI50 (MOLT-4; Homo sapiens, 5-dose, 48 h): 146 nM
inhibition at 10 µM (MOLT-4; Homo sapiens, one dose 10 µM): 80.3%
Growth % (MOLT-4; one dose 10 µM): 19.7%
TGI (HCT-15; 5-dose, 48 h): >100 µM
GI50 (HCT-15; Homo sapiens, 5-dose, 48 h): 66.4 nM
inhibition at 10 µM (HCT-15; Homo sapiens, one dose 10 µM): 86.4%
Growth % (HCT-15; one dose 10 µM): 13.63%
TGI (HOP-62; 5-dose, 48 h): >100 µM
GI50 (HOP-62; Homo sapiens, 5-dose, 48 h): 511 nM
inhibition at 10 µM (HOP-62; Homo sapiens, one dose 10 µM): 68.2%
Growth % (HOP-62; one dose 10 µM): 31.85%
GI50 (MDA-MB-468; Homo sapiens, 5-dose, 48 h): 106 nM
inhibition at 10 µM (MDA-MB-468; Homo sapiens, one dose 10 µM): 77%
Growth % (MDA-MB-468; one dose 10 µM): 23%
TGI (OVCAR-8; 5-dose, 48 h): >100 µM
GI50 (OVCAR-8; Homo sapiens, 5-dose, 48 h): 368 nM
inhibition at 10 µM (OVCAR-8; Homo sapiens, one dose 10 µM): 86.3%
Growth % (OVCAR-8; one dose 10 µM): 13.71%
